Laboratory results: patent US20020049160A1, “New strategy for drug design” (priority 2000, published 2002)

Columns and labels:
NMDA receptors = biological target: T1, NMDA receptors (Rattus norvegicus, UniProt P35439); assay: NMDA-evoked currents in isolated dorsal horn neurons of control rats, whole-cell patch clamp, with or without PKCM in the pipette; type: cell-based
T1 construct: Single dorsal horn neurons were isolated from the lamina I and II of the lumbar spinal cord; endogenous in cells; host or cells: acutely dissociated rat lumbar dorsal horn neurons (lamina I/II): control Long-Evans rats or CFA-inflamed Sprague-Dawley rats
Protocol: Single dorsal horn neurons were isolated from the lamina I and II of the lumbar spinal cord of 13-20 days old Long-Evans rats. After the rat had been anaesthetized with pentobarbitone (0.1 mg/g), the lumbar region of the spinal cord was rapidly removed from the animal and put into an ice-cold, oxygenated dissecting solution. […] Prior to an experiment, neurons from a slice were dissociated by triturating the tissue with a series of fire-polished Pasteur pipettes.
Electrical recordings: NMDA-receptor mediated currents in normal dorsal horn neurons were examined using the whole-cell patch clamp recording technique at room temperature (20-23° C.). The pipette solution contained (in mM): 120 cesium methanesulphonate, 20 CsCl, 1 CaCl2, 5 BAPTA, 1 MgCl2, 10 HEPES, 2.5 Na2ATP, adjusted to pH 7.2 with CsOH. The external solution contained (mM): NaCl,140; KCl, 4; CaCI2, 2.5; MgCl2, 0.02; HEPES,10; Glucose,10; Sucrose,10; adjusted to pH 7.4 with KOH. […] The resistances of patch pipettes were <20 Mohms. Current recordings were made with an Axopatch-200A patch clamp amplifier (Axon Instruments, Foster City, Calif.). The recorded whole-cell currents were filtered at 2 kHz and sampled at 200 μs per point. The average data are expressed as mean±SEM. Statistical significance of the data was evaluated using Student's t-test or one-way ANOVA. A level of P<0.05 was considered statistically significant.

[1] = system: N and P/Q subtypes of Ca^2+ channel; conditions: cited from earlier work
GABAA receptors = conditions: cited from earlier work
GABAB receptors = GABAB receptors (Homo sapiens, UniProt Q9UBS5); conditions: cited from earlier work
[2] = system: system L-amino acid transporter; conditions: cited from earlier work
[3] = system: formalin-induced nociceptive responses; conditions: formalin test, cited from earlier work
[4] = rodents; cited from earlier work
[5] = rabbits; cited from earlier work

Sequence of GABAB receptors (Q9UBS5 15-961 limits assumed): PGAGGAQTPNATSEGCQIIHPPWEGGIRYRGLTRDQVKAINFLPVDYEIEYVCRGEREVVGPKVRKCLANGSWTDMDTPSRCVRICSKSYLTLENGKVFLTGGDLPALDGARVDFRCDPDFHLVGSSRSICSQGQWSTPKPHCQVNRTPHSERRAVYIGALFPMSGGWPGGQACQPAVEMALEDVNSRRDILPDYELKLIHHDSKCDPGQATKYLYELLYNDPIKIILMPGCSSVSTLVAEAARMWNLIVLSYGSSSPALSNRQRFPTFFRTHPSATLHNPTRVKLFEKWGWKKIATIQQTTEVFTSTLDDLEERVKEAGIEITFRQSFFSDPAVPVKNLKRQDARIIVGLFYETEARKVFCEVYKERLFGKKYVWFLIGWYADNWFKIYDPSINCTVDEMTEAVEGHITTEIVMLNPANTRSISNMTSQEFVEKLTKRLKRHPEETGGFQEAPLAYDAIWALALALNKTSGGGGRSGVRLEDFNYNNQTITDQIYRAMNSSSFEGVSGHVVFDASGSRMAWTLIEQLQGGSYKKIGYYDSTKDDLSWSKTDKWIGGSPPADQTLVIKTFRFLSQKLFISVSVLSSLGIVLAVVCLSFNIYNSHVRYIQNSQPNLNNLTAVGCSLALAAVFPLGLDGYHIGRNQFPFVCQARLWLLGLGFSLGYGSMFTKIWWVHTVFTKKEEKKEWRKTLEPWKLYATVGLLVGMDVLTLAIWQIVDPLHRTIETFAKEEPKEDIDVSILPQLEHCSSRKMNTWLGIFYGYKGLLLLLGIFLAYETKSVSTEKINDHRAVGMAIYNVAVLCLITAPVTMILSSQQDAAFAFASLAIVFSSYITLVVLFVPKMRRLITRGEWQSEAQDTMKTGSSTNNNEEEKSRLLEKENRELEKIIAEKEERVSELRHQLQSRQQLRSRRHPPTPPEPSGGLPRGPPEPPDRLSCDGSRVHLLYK
Sequence of GABAB receptors (O75899 42-941 partner): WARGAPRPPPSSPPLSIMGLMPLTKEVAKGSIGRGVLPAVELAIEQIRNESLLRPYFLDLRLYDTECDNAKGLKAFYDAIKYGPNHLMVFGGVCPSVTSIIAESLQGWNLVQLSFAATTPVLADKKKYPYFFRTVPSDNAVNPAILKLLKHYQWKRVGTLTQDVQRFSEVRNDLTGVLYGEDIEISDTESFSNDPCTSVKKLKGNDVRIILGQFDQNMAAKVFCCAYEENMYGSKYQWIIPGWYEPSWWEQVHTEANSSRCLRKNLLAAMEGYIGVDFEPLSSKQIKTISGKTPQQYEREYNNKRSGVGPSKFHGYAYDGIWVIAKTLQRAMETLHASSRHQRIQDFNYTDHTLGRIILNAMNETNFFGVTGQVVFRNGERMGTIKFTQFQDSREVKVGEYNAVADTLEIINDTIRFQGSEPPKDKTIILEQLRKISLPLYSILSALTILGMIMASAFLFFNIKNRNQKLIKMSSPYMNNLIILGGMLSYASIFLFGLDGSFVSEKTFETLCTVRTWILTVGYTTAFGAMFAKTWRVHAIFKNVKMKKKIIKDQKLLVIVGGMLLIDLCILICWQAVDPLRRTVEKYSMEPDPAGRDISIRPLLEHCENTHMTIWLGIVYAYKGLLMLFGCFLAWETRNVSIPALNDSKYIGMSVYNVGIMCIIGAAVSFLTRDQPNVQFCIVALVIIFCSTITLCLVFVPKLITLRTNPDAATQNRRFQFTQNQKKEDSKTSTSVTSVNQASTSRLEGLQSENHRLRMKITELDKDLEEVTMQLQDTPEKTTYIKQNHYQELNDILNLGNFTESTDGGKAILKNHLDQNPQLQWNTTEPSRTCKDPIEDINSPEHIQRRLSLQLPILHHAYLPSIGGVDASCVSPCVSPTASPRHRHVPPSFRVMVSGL

Question: With NC(CCCP(=O)(O)O)C(=O)O (stereo not shown) [APV, 2-amino-5-phosphonovaleric acid] as the molecule, how does the “block of NMDA-evoked inward current” value (NMDA receptors; 20 μM APV, control dorsal horn neuron) read?
Answer: blocked

Question: For NCC1(CC(=O)O)CCCCC1 [GBP, 1-(aminomethyl)cyclohexaneacetic acid], which “inhibition of Ca^2+ channel activity” value [1] is on record?
Answer: < 20%

Question: And the “interaction with GABAA receptors” value (GABAA receptors)?
Answer: does not interact

Question: And the “interaction with GABAB receptors” value (GABAB receptors)?
Answer: does not interact

Question: And the “interaction with system L-amino acid transporter” value [2]?
Answer: interact

Question: And the “nociceptive behaviors in the transient phase” value ([3]; first phase)?
Answer: no effect

Question: And the “sustained phase of formalin-induced nociceptive responses” value ([3]; second phase)?
Answer: potently blocking

Question: What about the fetotoxicity [4] of the same molecule?
Answer: fetotoxic

Question: And the fetal loss [5]?
Answer: postimplantation fetal loss

Question: Which “block of the action of PKCM on NMDA-activated currents” value (NMDA receptors; 6.6 μM chelerythrine in external solution) does the source give for COc1ccc2c(c[n+](C)c3c4cc5c(cc4ccc23)OCO5)c1OC [chelerythrine] here?
Answer: completely blocked
